Assay results published in patent publication US6294547A, “Naphthyridine deratives or salts thereof” (Nippon Kayaku Kabushiki Kaisha, priority 1997, dated 2001).
Where a name gives a salt, the structure may show the parent alone.

What was measured:
[1] = test system: bronchoconstriction caused by inhalation of an antigen; experiment: Inhibitory effect on bronchoconstriction caused by inhalation of antigen (ovalbumin); assay type: in vivo, Hartley strain male guinea pigs (active sensitization); settings: 10 μmol/kg oral, 50 min before antigen inhalation; measured 8 min after
Method: There were used non-treated Hartley strain male guinea pigs and Hartley strain male guinea pigs received to active sensitization by subcutaneous administration of 30 mg/kg of ovalbumin 14 to 21 days before. The guinea pigs were anesthetized with pentobarbital and a tube was inserted into the trachea of each guinea pig. The guinea pigs were subjected to positive pressure respiration by means of an artificial respiratory apparatus at 10 ml/kg and 60 times/minute. The pressure in the edge of the tube in the trachea was measured as an indication of bronchoconstriction. Spontaneous respiration was inhibited by administering succinylcholine. […] The rate of inhibition by the drug was determined relative to the bronchoconstriction before the drug administration.
To the guinea pigs received to active sensitization, 4.6 μmol/kg of phosphoramidon was intravenously administered, and 15 minutes after the administration, these guinea pigs were allowed to inhale for 2 minutes an aerosol of an antigen ovalbumin solution (2 mg/ml) produced with an ultrasonic nebulizer, to cause bronchoconstriction. […] The inhibition rate of the drug-treated group was determined relative to the bronchoconstriction of the solvent-treated group measured 8 minutes after the antigen inhalation.

[2] = test system: NK-2 receptors; experiment: Inhibitory effect on bronchoconstriction caused by stimulation of NK-2 receptors (Nle10 neurokinin A (4-10)); assay type: in vivo, Hartley strain male guinea pigs
Method: There were used non-treated Hartley strain male guinea pigs and Hartley strain male guinea pigs received to active sensitization by subcutaneous administration of 30 mg/kg of ovalbumin 14 to 21 days before. The guinea pigs were anesthetized with pentobarbital and a tube was inserted into the trachea of each guinea pig. The guinea pigs were subjected to positive pressure respiration by means of an artificial respiratory apparatus at 10 ml/kg and 60 times/minute. The pressure in the edge of the tube in the trachea was measured as an indication of bronchoconstriction. Spontaneous respiration was inhibited by administering succinylcholine. The non-treated guinea pigs were repeatedly and intravenously injected with 2 nmol/kg of Nle10 neurokinin A (4-10), a specific stimulating agent for NK-2 receptors at intervals of 10 minutes. After the bronchoconstriction thus caused became stable, each drug was administered intravenously, orally or in duodenum. Nle10 neurokinin A (4-10) was intravenously injected again 3 minutes after the intravenous administration or 50 minutes after the oral administration or the administration in duodenum. The rate of inhibition by the drug was determined relative to the bronchoconstriction before the drug administration.

[3] = test system: NK-2 receptors; experiment: Antagonism for NK-2 receptors (neurokinin A induced contraction of isolated trachea); assay type: cell-based, Hartley strain male guinea pigs; settings: concentration 5 × 10^-9 M; neurokinin A 1×10^-9 M; guinea pig trachea; 110 min incubation
Method: Hartley strain male guinea pigs were killed by a blow on the head and blood-letting, and the tracheas were isolated. Specimens each composed of five slices of the trachea were prepared, and suspended at a tension of 0.5 gw in a magunus bath with an internal volume of 15 ml containing Krebs-Henseleit solution of 37° C. while introducing a mixed gas of 95% O2 +5% CO2 into the bath. As the Krebs-Henseleit solution, that containing indomethacin ([…]) was used for preventing the participation of intrinsic prostaglandins. After confirming the maximum degree of contraction of each specimen by the use of methacholine,a drug or a solvent therefor was added to the solution, followed by incubation for 110 minutes, and neurokinin A (1×10^-9 M) was allowed to act on the specimen. Phosphoramidon (1×10^-5 M) for inhibiting the degradation of neurokinin A and (±)CP-96345 (3×10^-7 M) for preventing the participation of NK-1 receptors were added 30 minutes and 20 minutes, respectively, before the addition of neurokinin A. The degree of contraction due to neurokinin A was converted to the percentage based on the maximum degree of contraction of the specimen, and then the rate of inhibition by the drug was determined relative to the percentage of contraction of the other specimen used in the case of adding the solvent.

[4] = target: T1, NK-1 receptors (Cavia porcellus, UniProt P30547); experiment: Antagonism for NK-1 receptor (methylsubstance P induced contraction of isolated ileum); assay type: cell-based, Hartley strain male guinea pigs; settings: guinea pig ileum; methylsubstance P 1×10^-9 M; 35 min incubation; read-out: IC50 of a drug on methylsubstance P induced contraction
T1 construct: the ileums were isolated; from tissue; host or cells: isolated ileum of male Hartley guinea pigs
T1 sequence (P30547 whole entry): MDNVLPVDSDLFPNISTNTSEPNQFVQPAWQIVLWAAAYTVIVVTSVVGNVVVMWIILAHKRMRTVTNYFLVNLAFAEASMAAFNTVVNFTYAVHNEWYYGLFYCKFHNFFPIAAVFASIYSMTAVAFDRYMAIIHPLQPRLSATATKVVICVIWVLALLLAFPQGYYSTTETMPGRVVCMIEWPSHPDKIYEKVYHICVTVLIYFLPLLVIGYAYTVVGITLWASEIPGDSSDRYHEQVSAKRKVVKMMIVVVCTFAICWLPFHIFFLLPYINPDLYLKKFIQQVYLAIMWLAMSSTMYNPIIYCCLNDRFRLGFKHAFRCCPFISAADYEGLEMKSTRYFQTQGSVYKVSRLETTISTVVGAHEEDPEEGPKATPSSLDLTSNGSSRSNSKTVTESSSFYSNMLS
Method: Hartley strain male guinea pigs were killed by a blow on the head and blood-letting, and the ileums were isolated. A specimen of about 3 cm in length was prepared and then suspended at a tension of 0.5 gw in a 15 magunus bath with an internal volume of 15 ml containing Krebs-Henseleit solution of 37° C. while introducing a mixed gas of 95% O2 +5% CO2 into the bath. As the Krebs-Henseleit solution, that containing atropine (1×10^-6 M) and indomethacin (5×10^-6 M) was used for preventing the participation of intrinsic acetylcholine and prostaglandins. Methylsubstance P (1×10^-9 M), a specific stimulating agent for NK-1 receptors were repeatedly allowed to act on the specimen at intervals of 40 minutes. After the percentage of contraction due to methylsubstance P became constant, a drug was added to the solution to each of various concentrations, followed by incubation for 35 minutes, and methyl-substance P was allowed to act on the specimen again. The rate of inhibition by the drug was determined relative to the percentage of contraction immediately before the addition of the drug, and the 50% inhibitory concentration (IC50) of the drug was determined by means of a regression line.

[5] = target: T2, NK-3 receptors (Cavia porcellus, UniProt P30098); experiment: Antagonism for NK-3 receptors (senktide induced contraction of isolated ileum); assay type: cell-based, Hartley strain male guinea pigs; settings: guinea pig ileum; senctide 1×10^-9 M; 35 min incubation; read-out: IC50 of a drug on senctide induced contraction
T2 construct: the ileums were isolated; from tissue; host or cells: isolated ileum of male Hartley guinea pigs
T2 sequence (P30098 1-440): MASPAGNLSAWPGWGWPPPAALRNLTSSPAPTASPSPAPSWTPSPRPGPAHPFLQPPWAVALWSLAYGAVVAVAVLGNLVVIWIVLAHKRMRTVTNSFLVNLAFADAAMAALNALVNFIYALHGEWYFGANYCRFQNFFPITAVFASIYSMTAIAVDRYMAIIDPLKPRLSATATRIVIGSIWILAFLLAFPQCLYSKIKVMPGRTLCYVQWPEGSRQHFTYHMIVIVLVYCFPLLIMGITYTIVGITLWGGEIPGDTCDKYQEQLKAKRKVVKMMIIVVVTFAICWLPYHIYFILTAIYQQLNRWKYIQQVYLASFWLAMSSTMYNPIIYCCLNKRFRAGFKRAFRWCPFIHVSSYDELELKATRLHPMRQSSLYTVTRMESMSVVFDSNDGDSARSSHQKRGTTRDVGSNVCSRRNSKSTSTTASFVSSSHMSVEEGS
Method: Hartley strain male guinea pigs were killed by a blow on the head and blood-letting, and the ileums were isolated. A specimen of about 3 cm in length was prepared and then suspended at a tension of 0.5 gw in a magunus bath with an internal volume of 15 ml containing Krebs-Henseleit solution of 37° C. while introducing a mixed gas of 95% O2 and 5% CO2 into the bath. As the Krebs-Henseleit solution, that containing atropine (1×10^-6 M) and indomethacin (5×10^-6 M) was used for preventing the participation of intrinsic acetylcholine and prostaglandins. Senctide (1×10^-9 M), a specific stimulating agent for NK-3 receptors was repeatedly allowed to act on the specimen at intervals of 50 minutes. After the percentage of contraction due to senctide became constant, a drug was added to the solution to each of various concentrations, followed by incubation for 35 minutes, and senctide was allowed to act on the specimen again. The rate of inhibition by the drug was determined relative to the percentage of contraction immediately before the addition of the drug, and the 50% inhibitory concentration (IC50) was determined by means of a regression line.

## CN(CC(CCN1CCc2nc3c(cc2C1)CCCC3)c1ccc(Cl)c(Cl)c1)C(=O)c1ccccc1 (single isomer, unassigned) [Example 25, 2-[(-)-4-(N-benzoyl-N-methyl)amino-3-(3,4-dichlorophenylbutyll-1,2,3,4,6,7,8,9-octahydro-benzo[b][1,6]naphthyridine fumarate]
[1]
  Inhibition (rate), inhalation of antigen: 54.1%
[2]; 1 μmol/kg intravenous, 3 min after administration
  Inhibition (rate), stimulation of NK-2 receptors: 94.2%
[2]; 8 μmol/kg oral, 50 min after administration
  Inhibition (rate), stimulation of NK-2 receptors: 67.2%
[3]
  Inhibition rate, neurokinin A induced contraction: 89.1%
[4]
  IC50: 0.47 µM
[5]
  IC50: 0.18 µM
